Source: article PMC9967275, “Screening the Pathogen Box to Discover and Characterize New Cruzain and TbrCatL Inhibitors” (Pathogens, 2023)
“Also recorded” adds a separate entry of the source. Like-named read-outs stand apart in the source and are kept apart here.

What was measured:
cruzain [1] = biological target: T1, cruzain (Trypanosoma cruzi, UniProt P25779); experiment: biochemical
Procedure, shortened: (§1)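 Recombinant enzymes assayed by Z-Phe-Arg-AMC cleavage at 25 °C, fluorescence 340/440 nm over 5–7 min, with 10 min or no enzyme–compound preincubation.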

TbrCatL = biological target: T2, TbrCatL (Trypanosoma brucei rhodesiense, UniProt Q95PM0); experiment: TbrCatL enzymatic inhibition assay (cleavage of fluorogenic substrate Z-FR-AMC); format: biochemical
T2 construct: Conor Caffrey (University of California San Diego)
Procedure, shortened: as §1

cruzain [2] = biological target: T1, cruzain; experiment: Aggregation counter-assays: cruzain inhibition at varying Triton X-100 and after pre-incubation with BSA; format: biochemical; set-up: Cruzain is the truncated, recombinant-expressed cruzipain 1; Brian Shoichet (University of California San Francisco); conditions: for % Cruzain Inhibition (Mean ± SEM) 0.001% Triton + BSA 1 mg/mL / % Cruzain Inhibition (Mean ± SEM) 0.001% Triton X-100 / % Cruzain Inhibition (Mean ± SEM) 0.1% Triton X-100 / % Cruzain Inhibition (Mean ± SEM) 0.01% Triton X-100: compound µM: MMV687246 12.5, MMV687812 3.125, MMV688179 1.563, MMV688362 3.125, MMV688466 6.25, MMV690028 25
Experimental: To assess the effects of the Triton X-100 concentration on cruzain inhibition, assays were performed using 0.001%, 0.01%, and 0.1% Triton X-100. To evaluate the impact of pre-incubation with bovine serum albumin (BSA), 50 µL of a solution of the compound in the assay buffer containing 0.001% of Triton X-100 was incubated with 4 mg/mL of BSA (Sigma-Aldrich) for 10′ in a 96-well plate. Next, 50 µL of a solution containing circa 2 nM of cruzain in the same buffer was added to each well and incubated for another 10′. Finally, 100 µL of a solution of 5 µM Z-FR-AMC in the same buffer was added to each well and the fluorescence was immediately read. The final compound concentration varies and was selected to be near the compound IC50.
To investigate if inhibition was due to colloidal aggregation, a common cause of unspecific enzyme inhibition in in vitro assays, we employed two well-established experiments: the comparison of percentages of inhibition at varying Triton X-100 concentrations and the effect of compound pre-incubation with BSA on the percentage of inhibition. […] Pre-incubating a compound that aggregates with BSA saturates the protein-binding capacity of the aggregate.

cruzain [3] = biological target: T1, cruzain; experiment: Mechanism of inhibition against cruzain (Michaelis-Menten, Lineweaver-Burk); format: biochemical; set-up: Cruzain is the truncated, recombinant-expressed cruzipain 1; Brian Shoichet (University of California San Francisco)
Experimental: Non-linear regression to Michaelis-Menten models and linear regression for the Lineweaver-Burk plot were performed. Ki was estimated by both methods. The effect of the inhibitor concentration on the Km app was evaluated using the General Linear F-test.

T. cruzi = conditions: cited from earlier work
DNA minor groove = test system: DNA minor groove; set-up: method as in PMID 18247550, PMID 22497334; conditions: SPR, ITC, CD, and Tm experiments; cited from earlier work
SARS-CoV-2 MPro = test system: SARS-CoV-2 MPro; set-up: method as in PMID 33655614; conditions: read-out: IC50 against MPro; cited from earlier work
ferrochelatase = test system: ferrochelatase; set-up: method as in earlier work; conditions: cited from earlier work
[4] = test system: porphobilinogen deaminase; set-up: method as in earlier work; conditions: cited from earlier work
[5] = set-up: method as in earlier work; conditions: cited from earlier work
[6] = IC50 (µM ± SEM %) Cruzain 0′, no pre-incubation
[7] = IC50 (µM ± SEM %) Cruzain 10′ inc, 10′ pre-incubation
[8] = IC50 against cruzain and TbrCatL (summary), cruzain and TbrCatL, with or without pre-incubation
[9] = read-out: Cruzain 0’ Inhibition, 0’ (pre-incubation time), sheet "Screening results"
[10] = read-out: Cruzain 10’ Inhibition, 10’ (pre-incubation time), sheet "Screening results"
[11] = read-out: Inhibition at 5 µM (Mean ± SEM %) Cruzain 0′, 5 µM, no pre-incubation, initial screening
[12] = read-out: Inhibition at 5 µM (Mean ± SEM %) Cruzain 10′ inc, 5 µM, 10′ pre-incubation, initial screening
[13] = read-out: Inhibition at 100 µM (Mean ± SEM %) Cruzain 0′, 100 µM, no pre-incubation, solid samples
[14] = read-out: Inhibition at 100 µM (Mean ± SEM %) Cruzain 10′ inc, 100 µM, 10′ pre-incubation, solid samples
[15] = read-out: Inhibition of cruzain or TbrCatL (either enzyme) in the initial screening, 5 µM, either cruzain or TbrCatL, with or without pre-incubation
[16] = IC50 (µM ± SEM %) TbrCatL 0′, no pre-incubation
[17] = IC50 (µM ± SEM %) TbrCatL 10′ inc, 10′ pre-incubation
[18] = read-out: Inhibition at 5 µM (Mean ± SEM %) TbrCatL 0′
[19] = read-out: Inhibition at 5 µM (Mean ± SEM %) TbrCatL 10′ inc
[20] = read-out: Inhibition at 100 µM (Mean ± SEM %) TbrCatL 0′
[21] = read-out: Inhibition at 100 µM (Mean ± SEM %) TbrCatL 10′ inc
[22] = read-out: TbrCatL 0’ Inhibition
[23] = read-out: TbrCatL 10’ Inhibition

T2 sequence (Q95PM0 entry or part of it): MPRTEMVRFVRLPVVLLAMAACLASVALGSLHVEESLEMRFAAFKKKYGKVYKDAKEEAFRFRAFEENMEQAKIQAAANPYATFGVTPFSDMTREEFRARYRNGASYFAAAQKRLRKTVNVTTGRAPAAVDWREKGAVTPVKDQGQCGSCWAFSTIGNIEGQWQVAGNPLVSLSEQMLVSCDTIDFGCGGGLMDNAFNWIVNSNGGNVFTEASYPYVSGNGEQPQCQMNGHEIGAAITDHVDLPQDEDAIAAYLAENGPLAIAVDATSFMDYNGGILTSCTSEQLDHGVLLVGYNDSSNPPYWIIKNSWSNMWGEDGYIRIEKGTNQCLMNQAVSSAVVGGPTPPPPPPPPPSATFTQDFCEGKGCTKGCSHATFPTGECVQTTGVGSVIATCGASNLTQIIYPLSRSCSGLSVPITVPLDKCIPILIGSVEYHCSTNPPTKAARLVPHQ
T1 sequence (P25779 123-337 limits assumed): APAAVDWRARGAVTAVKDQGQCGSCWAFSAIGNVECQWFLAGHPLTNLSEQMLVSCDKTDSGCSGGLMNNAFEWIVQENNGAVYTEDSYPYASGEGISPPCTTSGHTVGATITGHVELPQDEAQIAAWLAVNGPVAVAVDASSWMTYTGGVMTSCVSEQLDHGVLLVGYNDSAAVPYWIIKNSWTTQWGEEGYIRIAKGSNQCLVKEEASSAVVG

SMILES	IC50 (cruzain [1]; [6]) [µM]	IC50 (cruzain [1]; [7]) [µM]	inhibition at 5 µM (cruzain [1]; [9]) [%]	inhibition at 5 µM (cruzain [1]; [10]) [%]	inhibition at 5 µM (cruzain [1]; [11]) [%]	inhibition at 5 µM (cruzain [1]; [12]) [%]	inhibition at 100 µM (cruzain [1]; [13]) [%]	inhibition at 100 µM (cruzain [1]; [14]) [%]	inhibition at 5 µM (cruzain [1]; [15]) [%]	IC50 (TbrCatL; [16]) [µM]	IC50 (TbrCatL; [17]) [µM]	inhibition at 5 µM (TbrCatL; [18]) [%]	inhibition at 5 µM (TbrCatL; [19]) [%]	inhibition at 100 µM (TbrCatL; [20]) [%]	inhibition at 100 µM (TbrCatL; [21]) [%]	inhibition at 5 µM (TbrCatL; [22]) [%]	inhibition at 5 µM (TbrCatL; [23]) [%]	% Cruzain Inhibition (Mean ± SEM) 0.001% Triton + BSA 1 mg/mL (cruzain [2]) [%]	% Cruzain Inhibition (Mean ± SEM) 0.001% Triton X-100 (cruzain [2]) [%]	% Cruzain Inhibition (Mean ± SEM) 0.1% Triton X-100 (cruzain [2]) [%]	also measured
CN1CCN(CCCOc2ncc(Nc3ncc(-c4ccc(C(F)(F)F)c(F)c4)nc3C(N)=O)cn2)CC1 [MMV687812]	2.2 ± 0.3	2.6 ± 0.03	42	27	41 ± 2	27	100	95	≥ 40	3.45 ± 0.05	3.6 ± 0.3	11 ± 3	5 ± 1	90 ± 2	93	11	5.3	85 ± 1	92 ± 0	54 ± 1	IC50 (cruzain [1]; [8]): 2 to 4 µM; Effect of a 10-fold increase in the concentration of Triton X-100 on cruzain inhibition (cruzain [2]; near the IC50): some reduction in the inhibition; Effect of pre-incubation of the compound with BSA on cruzain inhibition (cruzain [2]; near the IC50): did not reduce the inhibition of cruzain
CN1CCN(S(=O)(=O)c2ccc(-c3ccc4c(Nc5ccc6nn[nH]c6c5)ccnc4c3)cc2)CC1 [MMV687246]	14 ± 5	10 ± 2	24	39	24 ± 3	39 ± 3	72 ± 1	92 ± 3	≥ 40	9 ± 3	4.2 ± 0.6	29 ± 1	49 ± 4	92 ± 6	99 ± 1	29	49	45 ± 1	62 ± 3	32 ± 2	Change of IC50 with vs without 10′ pre-incubation (cruzain [1]; against cruzain, 10 min): up to 2 fold; % Cruzain Inhibition (Mean ± SEM) 0.01% Triton X-100 (cruzain [2]): 51 ± 0%; Ki (cruzain [3]): 57000 ± 6000 nM; Mechanism of inhibition of cruzain (cruzain [3]): mixed inhibitor; also recorded: mixed inhibition; α value (mixed inhibition) (cruzain [3]; mixed model): 0.7 ± 0.2
COc1ccc(C2=NN(C3CCCCCC3)C(=O)C2(C)C)cc1OCCCCOc1ccc(-c2nn[nH]n2)cc1 [MMV690028]	10 ± 3	13 ± 5			34 ± 8	27 ± 4	100	100	≥ 40	18 ± 7	27 ± 3	49 ± 4	23 ± 4	100	88 ± 3			91 ± 7	69 ± 14		
COc1cc(C2=NCCN2)cc2cc(-c3ccc(C4=NCCN4)cc3)oc12 [MMV688362]	4.2 ± 0.6	2.35 ± 0.02	19	27	19 ± 1	27 ± 3	100	100	≥ 40	2.9 ± 0.8	2.3 ± 0.1	9 ± 1	43 ± 4	100	100	9	43	29 ± 3	59 ± 2	25 ± 2	IC50 (cruzain [1]; [8]): 2 to 4 µM; EC50 (T. cruzi; ref Pathogen Box data, read-out: EC50 against T. cruzi reported on PB): 13 µM; Binding to the DNA minor groove (DNA minor groove): known to bind to the DNA minor groove; % Cruzain Inhibition (Mean ± SEM) 0.01% Triton X-100 (cruzain [2]): 41 ± 2%; Effect of pre-incubation of the compound with BSA on cruzain inhibition (cruzain [2]; near the IC50): some reduction in the inhibition
N=C(N)Nc1ccc(-c2ccc(-c3ccc(NC(=N)N)cc3Cl)o2)c(Cl)c1 [MMV688179]	0.46 ± 0.03	0.53 ± 0.03	102	110	98 ± 2	100	100	100	≥ 60	4 ± 1	5 ± 2	50 ± 3	58 ± 25	100	100	50	58	89 ± 8	85 ± 6	82 ± 13	IC50 against TbrCatL relative to cruzain (TbrCatL; TbrCatL vs cruzain): 10 fold; EC50 (T. cruzi; read-out: EC50 against T. cruzi): 27 µM; Binding to the DNA minor groove (DNA minor groove): known to bind to the DNA minor groove; IC50 (SARS-CoV-2 MPro): 1600 nM; Inhibition of ferrochelatase (ferrochelatase): lack of MMV688179 inhibition; Inhibition of porphobilinogen deaminase [4]: lack of MMV688179 inhibition; CC50 [5]: 11.6 µM; % Cruzain Inhibition (Mean ± SEM) 0.01% Triton X-100 (cruzain [2]): 80 ± 1%; Colloidal aggregation assessment (cruzain [2]; near the IC50): do not suggest aggregation properties near the IC50; Mechanism of inhibition of cruzain (cruzain [3]): competitive inhibitor; also recorded: competition with the substrate; Ki (cruzain [3]; competitive model, read-out: Ki against cruzain from non-linear regression of the Michaelis-Menten competitive model): 165 ± 63 nM; Ki (cruzain [3]; linear regression of Kmapp, read-out: Ki against cruzain from the linear regression of Kmapp): 206 nM
